One experiment addresses Cathepsin B (Homo sapiens, UniProt P07858). Briefly: Cathepsin B Activity Assay. To be noted: 36 μM z-RR-AMC; 3.6 nM enzyme; pre-incubated 30 minutes at 25° C., 60 minutes at 37° C.; sigmoidal fit; read-out: Cathepsin B (Inhibition of cysteine protease activities). In kind it is biochemical. As for the experimental part: Cathepsin B was diluted in Cathepsin B buffer (20 mM Tris HCl pH 6.8; 1 mM EDTA; 1 mM DTT). Compounds stocks (100 mM) were stored at −20° C. in DMSO. Compounds were tested at the following final concentrations: 100 μM; 33.3 μM; 11.1 μM; 3.7 μM; 1.23 μM; 412 nM; 137 nM; 45.7 nM; 15.2 nM; 5 nM. Reactions were performed as duplicates in Black LJL 96 well plates (HE microplates; Molecular Devices; 20 μl final reaction volume). The substrate concentration for cathepsin B specificity assay was 36 μM (z-RR-AMC; Calbiochem). The concentration of the enzyme (Cathepsin B) in specificity assays was 3.6 nM. The concentrations were determined in order to perform specificity assays under initial velocities at fixed substrate concentration. Compounds were pre-incubated with enzymes for 30 minutes at 25° C. Reactions were initiated by addition of substrate to the plates containing the enzymes (+/− compounds) diluted in assay buffer. Reactions were incubated for 60 minutes at 37° C. Reactions were stopped by adding acetic acid (100 mM final). Readings were performed on a Pherastar Fluorescent Reader (BMG). δ […]. Data (mean values +/− standard deviation) were analyzed as % of control (no compound) and plotted as percentage versus the Log of the compound concentration using GraphPad (Prism). Data were fitted to a sigmoidal model (variable slope).

The next experiment concerns the target T1, Caspase 3 (Homo sapiens, UniProt P42574).
T1 sequence (P42574 29-175 limits assumed): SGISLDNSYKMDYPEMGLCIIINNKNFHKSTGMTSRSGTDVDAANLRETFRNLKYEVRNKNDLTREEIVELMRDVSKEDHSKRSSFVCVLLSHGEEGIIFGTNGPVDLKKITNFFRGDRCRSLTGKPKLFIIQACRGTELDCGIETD
T1 sequence (P42574 176-277 limits assumed): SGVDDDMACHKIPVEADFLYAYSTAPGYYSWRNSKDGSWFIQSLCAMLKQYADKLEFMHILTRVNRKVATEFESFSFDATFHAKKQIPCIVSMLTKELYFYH
Briefly: Caspase 3 Activity Assay. In kind it is biochemical. To be noted: 500 nM Ac-DEVD-AMC; 3.2 nM enzyme; pre-incubated 30 minutes at 25° C., 60 minutes at 37° C.; sigmoidal fit; read-out: Caspase 3 (Inhibition of cysteine protease activities). As for the experimental part:
Caspase 3 was diluted in Caspase B buffer (100 mM Hepes pH 7.5; 10% sucrose; 0.1% CHAPS). Compounds stocks (100 mM) were stored at −20° C. in DMSO. Compounds were tested at the following final concentrations: 100 μM; 33.3 μM; 11.1 μM; 3.7 μM; 1.23 μM; 412 nM; 137 nM; 45.7 nM; 15.2 nM; 5 nM. Reactions were performed as duplicates in Black LJL 96 well plates (HE microplates; Molecular Devices; 20 μl final reaction volume). The substrate concentration for caspase 3 specificity assay was 500 nM (Ac-DEVD-AMC; Promega). The concentration of the enzyme (Caspase 3) in specificity assays was 3.2 nM. The concentrations were determined in order to perform specificity assays under initial velocities at fixed substrate concentration. Compounds were pre-incubated with enzymes for 30 minutes at 25° C. Reactions were initiated by addition of substrate to the plates containing the enzymes (+/− compounds) diluted in assay buffer. Reactions were incubated for 60 minutes at 37° C. Reactions were stopped by adding acetic acid (100 mM final) Readings were performed on a Pherastar Fluorescent Reader (BMG). δ Emission 380 nm; δ Excitation=460 nm. Data (mean values +/− standard deviation) were analyzed as % of control (no compound) and plotted as percentage versus the Log of the compound concentration using GraphPad (Prism). Data were fitted to a sigmoidal model (variable slope).

“And” between values parts separate entries of the source, which are not always exact repeats. Equal values may be shown once. A value given as a limit tells only on which side of the number the result lay.

Turning to `O=C1c2ccccc2-c2nn3c(C4CC4)nnc3nc21` [Example 1j/B, 3-Cyclopropyl-1,2,3a,4,10-pentaaza-cyclopenta[b]fluoren-9-one], the IC50 on Cathepsin B stood at 181 nM; at Caspase 3, 188 nM.

On to `O=C1c2ccccc2-c2nc3nnc(CO)n3nc21` [Example 1h/A, 1-Hydroxymethyl-2,3,4,10,10a-pentaaza-cyclopenta[b]fluoren-9-one], for which the IC50 came to 30000 nM on Cathepsin B and 3900 nM on Caspase 3.

With `Cc1nnc2nc3c(nn12)C(=O)c1ccccc1-3` [Example 1b/A, 1-Methyl-2,3,4,10,10a-pentaaza-cyclopenta[b]fluoren-9-one], the IC50 on Cathepsin B amounted to 24000 nM; on Caspase 3, 4100 nM.

`CCCCc1nnc2nc3c(nn12)-c1ccccc1C3=O` [Example 1f/B, 3-Butyl-1,2,3a,4,10-pentaaza-cyclopenta[b]fluoren-9-one]: the IC50 at Cathepsin B came to 233 nM; on Caspase 3 it was 475 nM.

Regarding `Nc1nnc2nc3c(nn12)-c1ccccc1C3=O` [Example 1c/B, 3-Amino-1,2,3a,4,10-pentaaza-cyclopenta[b]fluoren-9-one], the IC50 at Cathepsin B was found to be 103 nM.

For `CC(C)Cc1nnc2nc3c(nn12)C(=O)c1ccccc1-3` [Example 1g/A, 1-Isobutyl-2,3,4,10,10a-pentaaza-cyclopenta[b]fluoren-9-one], the IC50 at Cathepsin B was 4620 nM; at Caspase 3 it was more than 100000 nM.

In the case of `O=C1c2ccccc2-c2nc3nnc(C4CC4)n3nc21` [Example 1j/A, 1-Cyclopropyl-2,3,4,10,10a-pentaaza-cyclopenta[b]fluoren-9-one], the IC50 at Caspase 3 is 1900 nM.

As to `Cc1nnc2nc3c(nn12)-c1ccccc1C3=O` [Example 1b/B, 3-Methyl-1,2,3a,4,10-pentaaza-cyclopenta[b]fluoren-9-one], the IC50 at Cathepsin B turned out to be 182 nM; at Caspase 3, 424 nM.

Turning to `O=C1c2ccccc2-c2nn3c(CO)nnc3nc21` [Example 1h/B], the IC50 on Cathepsin B was determined as 547 nM; at Caspase 3, 1020 nM.

`CCCc1nnc2nc3c(nn12)C(=O)c1ccccc1-3` [Example 1e/A, 1-Propyl-2,3,4,10,10a-pentaaza-cyclopenta[b]fluoren-9-one]: the values for the IC50 at Cathepsin B and at Caspase 3 were 5410 nM and more than 100000 nM, respectively.

Take `O=C1c2ccccc2-c2nc3nnc(Cc4ccccc4)n3nc21` [Example 1k/A, 1-Benzyl-2,3,4,10,10a-pentaaza-cyclopenta[b]fluoren-9-one]: the IC50 at Caspase 3 amounted to 598 nM.

As to `CCCc1nnc2nc3c(nn12)-c1ccccc1C3=O` [Example 1e/B, 3-Propyl-1,2,3a, 4,10-pentaaza-cyclopenta[b]fluoren-9-one], the IC50 on Cathepsin B was 267 nM; at Caspase 3, 727 nM.

As for `O=C1c2ccccc2-c2nn3c(Cc4ccccc4)nnc3nc21` [Example 1k/B, 3-Benzyl-1,2,3a,4,10-pentaaza-cyclopenta[b]fluoren-9-one], the results for the IC50 at Cathepsin B and on Caspase 3 were 363 nM and 164 nM, respectively.

Consider `CC(C)Cc1nnc2nc3c(nn12)-c1ccccc1C3=O` [Example 1g/B, 3-Isobutyl-1,2,3a,4,10-pentaaza-cyclopenta[b]fluoren-9-one], for which the IC50 on Cathepsin B came to 264 nM; at Caspase 3, 629 nM.

Take `COCc1nnc2nc3c(nn12)C(=O)c1ccccc1-3` [Example 1i/A, 1-Methoxymethyl-2,3,4,10,10a-pentaaza-cyclopenta[b]fluoren-9-one]: the IC50 on Cathepsin B came out at 1020 nM; at Caspase 3 it was 926 nM.

For the compound `CCc1nnc2nc3c(nn12)C(=O)c1ccccc1-3` [Example 1d/A, 1-Ethyl-2,3,4,10,10a-pentaaza-cyclopenta[b]fluoren-9-one], the IC50 at Caspase 3 was determined as 11600 nM.

With `CCCCc1nnc2nc3c(nn12)C(=O)c1ccccc1-3` [Example 1f/A, 1-Butyl-2,3,4,10,10a-pentaaza-cyclopenta[b]fluoren-9-one], the IC50 at Cathepsin B worked out at 6500 nM; on Caspase 3, 4600 nM.

For the compound `CCc1nnc2nc3c(nn12)-c1ccccc1C3=O` [Example 1d/B, 3-Ethyl-1,2,3a, 4,10-pentaaza-cyclopenta[b]fluoran-9-one], the IC50 at Cathepsin B is 150 nM; on Caspase 3, 212 nM and 467 nM.

The record behind these values is patent US7462615B2, “Inhibitors of cysteine proteases, the pharmaceutical compositions thereof and their therapeutic applications” (Hybrigenics SA, priority 2005, dated 2008).
